Values joined by “and” are separate entries in the source; they are usually repeats but may differ in a detail not shown here. Equal values may be shown once.
What was measured:
Format in all cases: cell-based
human PBMN [1] = assay: TNF release by PBMN with LPS plus composition in the presence of Polymyxin
Procedure: (§1) In the studies of TNF, whole blood was drawn from 5 healthy subjects into heparinized Vacutainer tubes. Peripheral blood mononuclear cells (PBMNs) were isolated by gradient centrifugation on Ficoll-Hypaque (Pharmacia). The PBMN were washed twice with phosphate buffered saline (PBS), counted and resuspended in RPMI 1640 culture medium (Gibco Labs) at a concentration of 10^6 cells/0.5 ml. These cells were cultured in 24 well, flat-bottomed tissue culture plates (Falcon, Becton, Dickinson). […] The total volume was then made up to 1 ml/well with RPMI. As control, PBS was used instead of composition. The cells were cultured for 2, 6, 24, 48 and 72 hours at 37° C. in a humidified 5% CO2 incubator. At the end of each incubation period, the cells were harvested and cell free culture fluids were obtained by centrifugation at 9000 rpm for 10 minutes. The samples were then stored at −70° C. until ELISA for cytokines was carried out (within 2 weeks).
Polymyxin inhibits the action of endotoxin on leukocytes. […] In the absence of polymyxin, LPS induces 517 pg/ml of TNF-α, whereas in the presence of Polymyxin 11 pg/ml of TNF-α is released.
Initially, the effect of different fractions were examined in the presence of Polymyxin. […] Batch BO213 was 369 and high. […] Therefore, whether the hyperosmolarity of the samples was inhibiting or enhancing TNF-α release was investigated as set out below.

human PBMN [2] = assay: LPS-induced release of TNF by PBMN, LPS plus composition or fractions (Example 9)
Procedure: as §1, with “As control, PBS was used instead of composition.” left out
The effect of different volumes of the compositions of the invention in inhibiting LPS stimulated release of TNF was examined.
This separation technique is used for small polar substances. […] The precipitate and the soluble fraction were separated. Both the precipitate and soluble fraction were taken to dryness by lyophilization. The precipitate and soluble fraction were reconstituted in aqueous solutions and both analyzed by RP-HPLC and tested for TNF-α releasing activity.
In the next series of experiments, the activity of the precipitate and supernatants were evaluated after their separation by C18 RP-HPLC. The precipitate and supernatant were collected as 2 pools from RP-HPLC: 2 to 21 min and 21 to 46 min.

human PBMN [3] = assay: Direct TNF release from PBMN by composition in the absence of LPS (ELISA); conditions: 24 hrs; seven patient samples
Procedure: as §1, with “Peripheral” for “In the studies of TNF, whole blood was drawn from 5 healthy subjects into heparinized Vacutainer tubes. Peripheral”
The direct stimulatory effect of Batch B0203 was tested at different volumes and then at different times.
Batch B0203 stimulated maximum TNF-release at about 100 μl (Table 16). […] Thus, the composition was able to stimulate TNF-release on its own, that is in the absence of LPS and the curves for TNF-release were similar to when the composition and LPS were combined.

human PBMN [4] = assay: Direct effect of composition on cytokine production by PBMN (IL-1α, IL-1β, IL-6, IL-8, GM-CSF, IFN-γ, IL-4; ELISA); conditions: LPS 1 μg, 24 hrs
[5] = tested on: human peripheral blood mononuclear cells (PBMN); assay: Survival of PBMN, trypan blue dye exclusion; conditions: Patient
Excerpt: At the end of this period, the number of surviving cells was estimated by trypan blue dye exclusion.

[6] = LPS 50 ng, first line printed LPS (1) (Table 31)
[7] = LPS 50 ng, second line printed LPS (1) (Table 31)
[8] = second LPS section, LPS 1 μg/well, 24 hrs
[9] = second LPS section, LPS 1 μg/well, 48 hrs
[10] = second LPS section, LPS 10 μg/well, 24 hrs
[11] = second LPS section, LPS 10 μg/well, 48 hrs

Substance: Lipopolysaccharide [LPS]
- TNF Released Total (human PBMN [1]; Polymyxin 50.000 units/ml, composition and fractions 200 μl, LPS 50 ng/10 μl, 2 patients (Table 21)): 31 ± 31 pg/mL
- TNF Released −LPS (human PBMN [1]; Polymyxin 50,000 units/ml, LPS 50 ng/10 μl, composition 200 μl (Table 19)): 0 pg/mL
- TNF Released Total (human PBMN [1]; Polymyxin 50,000 units/ml, LPS 50 ng/10 μl, composition 200 μl, 8 patients (Table 19)): 11 pg/mL and 11 ± 7 pg/mL
- TNF Released Total (human PBMN [1]; Polymyxin 50,000 units/ml, composition and fractions 200 μl, LPS 50 ng/10 μl, 5 patients (Table 20)): 40 ± 25 pg/mL
- TNF Released −LPS (human PBMN [1]; Polymyxin, 200 μl, 2 patients (Table 21)): 0 pg/mL
- TNF Released −LPS (human PBMN [1]; Polymyxin, 200 μl, 5 patients (Table 20)): 0 pg/mL
- TNF Released (human PBMN [2]; 1X 199 Medium, LPS 10 ng/10 μl, 1 patient): 124 pg/mL
- TNF Released (human PBMN [2]; 1X 199 Medium, LPS 50 ng/10 μl, 1 patient): 155 pg/mL
- TNF Released (human PBMN [2]; 1X 199 Medium, LPS 100 ng/10 μl, 1 patient): 147 pg/mL
- TNF Released (human PBMN [2]; 1X 199 Medium, LPS 200 ng/10 μl, 1 patient): 213 pg/mL
- TNF Released (human PBMN [2]; 1X 199 Medium, LPS 1000 ng/10 μl, 1 patient): 404 pg/mL
- TNF Released (human PBMN [2]; 1640 RPMI Medium, LPS 50 ng/10 μl, 1 patient): 356 pg/mL
- TNF Released (human PBMN [2]; 1640 RPMI Medium, LPS 100 ng/10 μl, 1 patient): 323 pg/mL
- TNF Released (human PBMN [2]; 1640 RPMI Medium, LPS 200 ng/10 μl, 1 patient): 455 pg/mL
- TNF Released (human PBMN [2]; 1640 RPMI Medium, LPS 1000 ng/10 μl, 1 patient): 558 pg/mL
- TNF Released by LPS (50 ng/ml) (human PBMN [2]; 2 hr): 697 pg/mL and 697 ± 94 pg/mL
- TNF Released by LPS (50 ng/ml) (human PBMN [2]; 24 hr): 800 ± 222 pg/mL
- TNF Released by LPS (50 ng/ml) (human PBMN [2]; 48 hr): 170 ± 149 pg/mL
- TNF Released by LPS (50 ng/ml) (human PBMN [2]; 72 hr): 132 ± 147 pg/mL
- TNF Released -LPS (human PBMN [2]; LPS 50 ng (Table 29)): 0 pg/mL
- TNF Released -LPS (human PBMN [2]; LPS 50 ng (Table 30)): 0 pg/mL
- TNF Released −LPS (human PBMN [2]; LPS 50 ng/10 μl (Table 24)): 0 pg/mL
- TNF Released -LPS (human PBMN [2]; LPS 50 ng/10 μl (Table 25)): 0 pg/mL
- TNF Released -LPS (human PBMN [2]; LPS 50 ng/10 μl (Table 26)): 0 pg/mL
- TNF Released Total (human PBMN [2]; LPS 50 ng/10 μl, 1X 199 Medium, 2 patients (Table 26)): 136 ± 38 pg/mL
- TNF Released Total (human PBMN [2]; LPS 50 ng/10 μl, 1X 199 Medium, 5 patients (Table 24)): 161 ± 50 pg/mL
- TNF Released Total (human PBMN [2]; LPS 50 ng/10 μl, 199 Medium, 2 patients (Table 25)): 194 ± 93 pg/mL
- TNF Released Total (human PBMN [2]; LPS 50 ng, 199 Medium, 5 patients (Table 29)): 322 ± 115 pg/mL
- TNF Released Total (human PBMN [2]; LPS 50 ng, 199 Medium, 5 patients (Table 30)): 99 ± 43 pg/mL
- TNF Released -LPS (human PBMN [2]; [6]): 0 pg/mL
- TNF Released Total (human PBMN [2]; [6]): 136 ± 62 pg/mL
- TNF Released -LPS (human PBMN [2]; [7]): 0 pg/mL
- TNF Released Total (human PBMN [2]; [7]): 81 ± 25 pg/mL
- TNF Released (human PBMN [2]; LPS (50 ng/ml) alone, Table 10): 915 ± 763
- TNF Released −LPS (human PBMN [2]; absence of Polymyxin, 200 μl, 5 patients (Table 22)): 0 pg/mL
- TNF Released Total (human PBMN [2]; absence of Polymyxin, composition and fractions 200 μl, LPS 50 ng/10 μl, 5 patients (Table 22)): 219 pg/mL
- TNF Released −LPS (human PBMN [2]; absence of Polymyxin, footnote 200 μl, 3 patients (Table 23)): 0 pg/mL
- TNF Released Total (human PBMN [2]; absence of Polymyxin, footnote: composition and fractions 200 μl, LPS 50 ng/10 μl, 3 patients (Table 23)): 195 ± 72 pg/mL
- TNF Released −LPS (human PBMN [2]; no additive, LPS 50 ng/10 μl, composition 200 μl (Table 19)): 0 pg/mL
- TNF Released Total (human PBMN [2]; no additive, LPS 50 ng/10 μl, composition 200 μl, 3 patients (Table 19)): 517 pg/mL and 517 ± 118 pg/mL
- TNF Released (human PBMN [3]): 1501 ± 284 pg/mL
- GM-CSF released (human PBMN [4]): 54 ± 20 pg/mL
- IFN-γ released (human PBMN [4]): 54 ± 94 pg/mL
- IL-1β released (human PBMN [4]): 965 ± 99 pg/mL
- IL-4 released (human PBMN [4]): <3.0 pg/mL
- IL-6 released (human PBMN [4]): 2016 ± 41 pg/mL
- IL-1α released (human PBMN [4]; eight patient samples): 315 ± 117 pg/mL
- % viable ([5]; LPS 1 μg/well, 24 hrs): 43%
- No. of Live PBMN per Well by Trypan Blue ([5]; LPS 1 μg/well, 24 hrs): 0.30 ×10^6
- % viable ([5]; LPS 1 μg/well, 48 hrs): 40%
- No. of Live PBMN per Well by Trypan Blue ([5]; LPS 1 μg/well, 48 hrs): 0.28 ×10^6
- % viable ([5]; LPS 10 μg/well, 24 hrs): 36%
- No. of Live PBMN per Well by Trypan Blue ([5]; LPS 10 μg/well, 24 hrs): 0.25 ×10^6
- % viable ([5]; LPS 10 μg/well, 48 hrs): 18%
- No. of Live PBMN per Well by Trypan Blue ([5]; LPS 10 μg/well, 48 hrs): 0.13 ×10^6
- % viable [5, 8]: 46%
- No. of Live PBMN per Well by Trypan Blue [5, 8]: 0.60 ×10^6
- % viable [5, 9]: 41%
- No. of Live PBMN per Well by Trypan Blue [5, 9]: 0.53 ×10^6
- % viable [5, 10]: 12%
- No. of Live PBMN per Well by Trypan Blue [5, 10]: 0.15 ×10^6
- % viable [5, 11]: 12%
- No. of Live PBMN per Well by Trypan Blue [5, 11]: 0.15 ×10^6
